Usually IC50 stands for the concentration that gives 50% inhibition. The low end stands for greater potency, the high end for weaker potency.

Assay type in all cases: cell-based
Test [1] addresses T1, human EGFR exon 20 insertion NPG (H773_V774insNPG) (Homo sapiens, UniProt P00533, INS772GNP).
T1 construct: expressed in transfected cells; host or cells: Ba/F3 (murine pro-B) cells transduced with lentivirus from pLVX-IRES puro
Put plainly: Ba/F3-EGFR-Exon20-NPG cell anti-proliferative assay (CellTiter 96 MTS, 72 h). The conditions noted are these: Ba/F3-EGFR-Exon20-NPG cells. The method, then:
An expression vector, pLVX-IRES puro (Clontech) coding for human EGFR exon 20 insertions NPG (H773_V774insNPG) or ASV (V769_D770insASV), was transfected into HEK293 cells by the Trans-Lentiviral ORF Packaging System (Thermo Scientific), to produce virus encoding EGFR exon 20 insertions. Ba/F3 (DSMZ) cells maintained in RPMI 1640 medium supplemented with 10% fetal bovine serum, 200 μM L-glutamine/l 200 μg/mL penicillin/200 μg/mL streptomycin (Life Technology) and 10 ng/mL IL-3 (R&D system), were infected by EGFR Exon20 virus and subsequently selected by puromycin (Life Technology) selection and IL-3 depletion. […] The anti-proliferative activity of compounds were determined as follows: BaF3-EGFR-Exon20 cells (NPG or ASV) seeded in 96 well plates (2500 cells/well) were treated with test compound (dissolved in DMSO) at a series of concentrations (4-fold dilution, top concentration: 10,000 nM). The plates were incubated for 72 h in a 37° C. incubator with 5% CO2, and the number of viable cells in each well were measured indirectly by CellTiter 96® Aqueous One Solution Cell Proliferation Assay (Promega) This assay is a colorimetric method for determining the number of viable cells through measurement of their metabolic activity by detection of enzymatic conversion of tetrazolium salts into blue formazan derivatives. Reagent (20 μL) was added into each well, and the plates were returned to the incubator for 2 h. The absorbance in each well was then measured at 490 nm using an Envision plate reader (Perkin Elmer).

Test [2] has as its target T2, human EGFR E746-A750 deletion and T790M Mutation (Homo sapiens, UniProt P00533, DEL746-750/T790M).
T2 construct: expressed in transfected cells; host or cells: Ba/F3 (murine pro-B) cells transduced with lentivirus from pLVX-IRES puro
Put plainly: Ba/F3-EGFR-Del/T790M cell anti-proliferative assay (CellTiter 96 MTS, 72 h). The conditions noted are these: Ba/F3-EGFR-Del/T790M cells. Here is the method: An expression vector, pLVX-IRES puro (Clontech) coding for human EGFR E746-A750 deletion and T790M Mutation, was transfected into HEK293 cells by the Trans-Lentiviral ORF Packaging System (Thermo Scientific), to produce virus encoding EGFR exon 19 deletion and T790M mutations. Ba/F3 (DSMZ) cells maintained in RPMI 1640 medium supplemented with 10% fetal bovine serum, 200 μM L-glutamine/200 μg/mL penicillin/200 μg/mL streptomycin (Life Technology) and 10 ng/mL IL-3 (R&D system), were infected by EGFR E746-A750 deletion and T790M Mutation virus and subsequently selected by puromycin (Life Technology) selection and IL-3 depletion. […] The anti-proliferative activity of compounds was determined as follows: BaF3-EGFR-Del/T790M cells seeded in 96 well plates (2500 cells/well) were treated with test compound (dissolved in DMSO) at a series of concentrations (4-fold dilution, top concentration: 10,000 nM). The plates were incubated for 72 h in a 37° C. incubator with 5% CO2, and the number of viable cells in each well were measured indirectly by CellTiter 96® Aqueous One Solution Cell Proliferation Assay (Promega; this assay is a colorimetric method for determining the number of viable cells through measurement of their metabolic activity by detection of enzymatic conversion of tetrazolium salts into blue formazan derivatives). Reagent (20 μL) was added into each well, and the plates were returned to the incubator for 2 h. The absorbance in each well was then measured at 490 nm using an Envision plate reader (Perkin Elmer).

Test [3] deals with T3, Her2 exon 20 YVMA insertion (A775_G776ins YVMA) (Homo sapiens, UniProt P04626, INS775YVMA).
T3 construct: expressed in transfected cells; host or cells: Ba/F3 (murine pro-B) cells transduced with lentivirus from pLVX-IRES puro
The experiment in a line: Ba/F3-Her2 Exon20 YVMA cell anti-proliferative assay (CellTiter 96 MTS, 72 h). The conditions noted are these: Ba/F3-Her2 Exon20 YVMA cells. The source says:
A compound's ability in selectively inhibiting Her2 exon 20 YVMA insertion mutations can be assessed using Ba/F3 cells, a murine pro-B cell line, which have been transduced with Her2 Exon20 YVMA insertions. An expression vector, pLVX-IRES puro (Clontech) coding for […] (A775_G776ins YVMA), was transfected into HEK293 cells by the Trans-Lentiviral ORF Packaging System (Thermo Scientific), to produce virus encoding EGFR exon 20 insertions. Ba/F3 (DSMZ) cells maintained in RPMI 1640 medium supplemented with 10% fetal bovine serum, 200 μM L-glutamine/200 μg/mL penicillin/200 μg/mL streptomycin (Life Technology) and 10 ng/mL IL-3 (R&D system), were infected by EGFR Exon20 virus and subsequently selected by puromycin (Life Technology) selection and IL-3 depletion. Ba/F3 cells expressing Her2 Exon20 YVMA insertions (named Ba/F3-Her2 Exon20 YVMA) can proliferate in the absence of IL-3. The anti-proliferative activity of compounds was determined as follows: BaF3-Her2 Exon20 YVMA cells seeded in 96 well plates (2500 cells/well) were treated with test compound (dissolved in DMSO) at a series of concentrations (4-fold dilution, top concentration: 10,000 nM). The plates were incubated for 72 h in a 37° C. incubator with 5% CO2, and the number of viable cells in each well were measured indirectly by CellTiter 96@ Aqueous One Solution Cell Proliferation Assay (Promega; this assay is a colorimetric method for determining the number of viable cells through measurement of their metabolic activity by detection of enzymatic conversion of tetrazolium salts into blue formazan derivatives). Reagent (20 μL) was added into each well, and the plates were returned to the incubator for 2 h. The absorbance in each well was then measured at 490 nm using an Envision plate reader (Perkin Elmer).

T3 sequence (P04626 with tags, fused parts or gaps INS775YVMA): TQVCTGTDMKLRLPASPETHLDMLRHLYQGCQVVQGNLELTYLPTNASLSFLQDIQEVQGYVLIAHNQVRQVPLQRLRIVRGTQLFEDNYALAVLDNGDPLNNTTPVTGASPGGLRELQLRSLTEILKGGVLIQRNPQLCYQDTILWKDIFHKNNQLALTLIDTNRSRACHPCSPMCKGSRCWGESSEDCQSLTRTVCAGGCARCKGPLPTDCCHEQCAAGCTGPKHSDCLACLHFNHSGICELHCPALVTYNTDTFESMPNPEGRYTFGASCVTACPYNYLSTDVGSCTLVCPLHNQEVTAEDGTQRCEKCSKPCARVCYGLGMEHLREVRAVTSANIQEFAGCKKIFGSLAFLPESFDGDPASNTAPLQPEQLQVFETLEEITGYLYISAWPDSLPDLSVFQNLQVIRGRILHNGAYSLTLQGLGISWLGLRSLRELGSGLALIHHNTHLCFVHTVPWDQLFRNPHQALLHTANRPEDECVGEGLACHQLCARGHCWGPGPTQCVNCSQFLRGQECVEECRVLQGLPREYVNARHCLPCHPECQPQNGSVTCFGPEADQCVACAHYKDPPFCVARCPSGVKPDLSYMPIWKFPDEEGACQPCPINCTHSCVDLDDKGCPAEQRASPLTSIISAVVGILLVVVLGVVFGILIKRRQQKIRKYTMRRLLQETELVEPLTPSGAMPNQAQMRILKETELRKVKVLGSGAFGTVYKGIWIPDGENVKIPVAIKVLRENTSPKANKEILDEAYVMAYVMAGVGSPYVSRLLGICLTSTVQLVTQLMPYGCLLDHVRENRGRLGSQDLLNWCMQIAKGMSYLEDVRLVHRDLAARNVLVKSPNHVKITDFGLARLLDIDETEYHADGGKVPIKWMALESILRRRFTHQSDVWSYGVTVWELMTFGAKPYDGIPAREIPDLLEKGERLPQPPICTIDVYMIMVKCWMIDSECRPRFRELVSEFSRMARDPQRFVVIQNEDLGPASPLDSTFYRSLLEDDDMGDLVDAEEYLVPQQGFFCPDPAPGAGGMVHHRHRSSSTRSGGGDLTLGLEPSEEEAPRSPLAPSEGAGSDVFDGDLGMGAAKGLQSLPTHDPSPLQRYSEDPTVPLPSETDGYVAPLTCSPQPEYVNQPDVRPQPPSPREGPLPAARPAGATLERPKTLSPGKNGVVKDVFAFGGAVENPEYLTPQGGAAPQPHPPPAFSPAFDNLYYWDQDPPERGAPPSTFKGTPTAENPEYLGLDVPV
T2 sequence (P00533 with tags, fused parts or gaps DEL746-750/T790M): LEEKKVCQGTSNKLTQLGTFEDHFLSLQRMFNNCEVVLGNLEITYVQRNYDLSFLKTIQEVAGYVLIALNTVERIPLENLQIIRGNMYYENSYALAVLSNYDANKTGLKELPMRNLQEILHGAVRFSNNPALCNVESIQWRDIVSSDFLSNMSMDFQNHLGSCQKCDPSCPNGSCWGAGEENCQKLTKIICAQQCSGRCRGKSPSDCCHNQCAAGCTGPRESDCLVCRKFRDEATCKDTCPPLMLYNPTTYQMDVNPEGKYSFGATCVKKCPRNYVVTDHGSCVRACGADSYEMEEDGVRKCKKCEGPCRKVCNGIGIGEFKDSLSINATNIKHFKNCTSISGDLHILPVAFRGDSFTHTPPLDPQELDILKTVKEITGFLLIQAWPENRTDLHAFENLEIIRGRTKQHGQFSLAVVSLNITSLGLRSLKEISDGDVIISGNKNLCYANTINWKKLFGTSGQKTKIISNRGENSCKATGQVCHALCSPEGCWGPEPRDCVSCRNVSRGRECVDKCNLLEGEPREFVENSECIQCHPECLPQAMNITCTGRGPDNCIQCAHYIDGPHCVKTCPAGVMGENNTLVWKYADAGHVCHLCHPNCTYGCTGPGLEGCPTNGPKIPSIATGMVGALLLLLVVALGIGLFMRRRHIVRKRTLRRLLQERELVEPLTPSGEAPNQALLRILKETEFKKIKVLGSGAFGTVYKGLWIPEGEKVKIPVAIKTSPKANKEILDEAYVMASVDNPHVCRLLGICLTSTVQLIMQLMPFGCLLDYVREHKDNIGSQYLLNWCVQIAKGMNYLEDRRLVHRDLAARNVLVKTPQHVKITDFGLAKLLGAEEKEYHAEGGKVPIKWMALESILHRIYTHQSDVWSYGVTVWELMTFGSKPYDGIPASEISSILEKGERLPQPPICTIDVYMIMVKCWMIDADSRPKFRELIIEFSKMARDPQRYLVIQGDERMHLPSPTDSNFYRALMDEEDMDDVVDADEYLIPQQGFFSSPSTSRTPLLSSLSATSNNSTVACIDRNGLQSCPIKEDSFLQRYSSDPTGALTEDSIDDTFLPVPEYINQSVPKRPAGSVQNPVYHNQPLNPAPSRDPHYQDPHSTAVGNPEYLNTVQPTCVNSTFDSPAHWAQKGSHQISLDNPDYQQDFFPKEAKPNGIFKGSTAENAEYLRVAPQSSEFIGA
T1 sequence (P00533 with tags, fused parts or gaps INS772GNP): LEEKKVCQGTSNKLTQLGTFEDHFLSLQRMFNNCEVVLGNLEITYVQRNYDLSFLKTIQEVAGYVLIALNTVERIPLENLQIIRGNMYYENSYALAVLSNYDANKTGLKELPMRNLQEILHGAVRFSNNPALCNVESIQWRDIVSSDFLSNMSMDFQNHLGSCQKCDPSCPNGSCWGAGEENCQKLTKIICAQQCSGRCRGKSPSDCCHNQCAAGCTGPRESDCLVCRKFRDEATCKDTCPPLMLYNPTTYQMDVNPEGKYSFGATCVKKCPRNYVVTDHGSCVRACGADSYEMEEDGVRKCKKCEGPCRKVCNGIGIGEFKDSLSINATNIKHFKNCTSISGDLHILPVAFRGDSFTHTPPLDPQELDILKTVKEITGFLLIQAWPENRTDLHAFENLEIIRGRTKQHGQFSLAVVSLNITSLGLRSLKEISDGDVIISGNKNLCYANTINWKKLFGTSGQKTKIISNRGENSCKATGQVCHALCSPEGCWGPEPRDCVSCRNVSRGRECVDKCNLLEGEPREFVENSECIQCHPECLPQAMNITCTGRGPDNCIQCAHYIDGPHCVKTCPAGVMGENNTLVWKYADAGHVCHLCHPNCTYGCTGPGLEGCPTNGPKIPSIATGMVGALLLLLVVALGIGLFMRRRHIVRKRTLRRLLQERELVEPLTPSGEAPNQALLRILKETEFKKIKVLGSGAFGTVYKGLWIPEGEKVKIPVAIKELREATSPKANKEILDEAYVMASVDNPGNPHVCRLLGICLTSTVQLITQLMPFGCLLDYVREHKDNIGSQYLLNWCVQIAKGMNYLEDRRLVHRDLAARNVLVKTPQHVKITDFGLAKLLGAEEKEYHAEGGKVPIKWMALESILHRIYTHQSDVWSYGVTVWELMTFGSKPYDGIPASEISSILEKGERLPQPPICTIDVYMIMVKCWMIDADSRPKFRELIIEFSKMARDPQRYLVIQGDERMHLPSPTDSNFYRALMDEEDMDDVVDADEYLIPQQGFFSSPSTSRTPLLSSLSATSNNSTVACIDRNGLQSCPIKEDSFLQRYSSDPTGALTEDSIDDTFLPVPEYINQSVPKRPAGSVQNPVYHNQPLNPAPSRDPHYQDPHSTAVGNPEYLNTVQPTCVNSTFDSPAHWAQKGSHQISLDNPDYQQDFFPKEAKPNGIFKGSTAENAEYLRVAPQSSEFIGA

With `C=CC(=O)Nc1cc(Nc2ncc(CC)c(-c3cn4c5c(cccc35)CCC4)n2)c(OC)cc1N1CCN(C(C)=O)CC1` [Example 3, N-(2-(4-acetylpiperazin-1-yl)-5-((4-(5,6-dihydro-4H-pyrrolo[3,2,1-ij]quinolin-1-yl)-5-ethylpyrimidin-2-yl)amino)-4-methoxyphenyl)acrylamide], the IC50 in test [1] and in test [3] was over 1000 nM each time. Moreover, in test [2], the “EGFR exon 19 deletion and exon 20 T790M mutation IC50” value is on record as “B (IC50 value for the indicated mutant between about 100 to about 500 nM)”.

Turning to `C=CC(=O)Nc1cc(Nc2ncc(Cl)c(-c3cn4c5c(cccc35)CCC4)n2)c(C)cc1N(C)CCN(C)C` [Example 13, N-(5-((5-chloro-4-(5,6-dihydro-4H-pyrrolo[3,2,1-ij]quinolin-1-yl)pyrimidin-2-yl)amino)-2-((2-(dimethylamino)ethyl)(methyl)amino)-4-methylphenyl)acrylamide], the values for the IC50 in test [1] and in test [3] were under 100 nM and 100 to 500 nM, respectively. Moreover, the “EGFR exon 19 deletion and exon 20 T790M mutation IC50” value in test [2] was “A (IC50 value for the indicated mutant below about 100 nM)”.

Consider `C=CC(=O)Nc1cc(Nc2ncc(Cl)c(-c3cn4c5c(cccc35)CCC4)n2)c(OC)cc1OCCN1CCCC1` [Example 20], for which the IC50 in test [1] lay in the range of 100 to 500 nM; in test [3], 500 to 1000 nM. Moreover, the “EGFR exon 19 deletion and exon 20 T790M mutation IC50” value in test [2] was “A (IC50 value for the indicated mutant below about 100 nM)”.

With `C=CC(=O)Nc1cc(Nc2ncc(Cl)c(-c3cn4c5c(cccc35)CCC4)n2)c(OC)cc1OCCN1CCN(C)CC1` [Example 21, N-(5-((5-chloro-4-(5,6-dihydro-4H-pyrrolo[3,2,1-ij]quinolin-1-yl)pyrimidin-2-yl)amino)-4-methoxy-2-(2-(4-methylpiperazin-1-yl)ethoxy)phenyl)acrylamide], the half-inhibitory concentration (IC50) in test [1] is 100 to 500 nM; in test [3], over 1000 nM. Further, the “EGFR exon 19 deletion and exon 20 T790M mutation IC50” value in test [2] is reported as “A (IC50 value for the indicated mutant below about 100 nM)”.

For the molecule `C=CC(=O)Nc1cc(Nc2ncc(Cl)c(-c3cn4c5c(cccc35)CCC4)n2)c(OC)cc1OCCN1CCOCC1` [Example 22, N-(5-((5-chloro-4-(5,6-dihydro-4H-pyrrolo[3,2,1-ij]quinolin-1-yl)pyrimidin-2-yl)amino)-4-methoxy-2-(2-morpholinoethoxy)phenyl)acrylamide], the IC50 in test [1] was 100 to 500 nM; in test [3], over 1000 nM. Also, the “EGFR exon 19 deletion and exon 20 T790M mutation IC50” value in test [2] is “A (IC50 value for the indicated mutant below about 100 nM)”.

`C=CC(=O)Nc1cc(Nc2ncc(Cl)c(-c3cn4c5c(cccc35)CCC4)n2)c(OC)cc1N(C)CCN1CCCC1` [Example 24, N-(5-((5-chloro-4-(5,6-dihydro-4H-pyrrolo[3,2,1-ij]quinolin-1-yl)pyrimidin-2-yl)amino)-4-methoxy-2-(methyl(2-(pyrrolidin-1-yl)ethyl)amino)phenyl)acrylamide]: the IC50 in test [1] was under 100 nM; in test [3] it was 100 to 500 nM. Moreover, the “EGFR exon 19 deletion and exon 20 T790M mutation IC50” value in test [2] is recorded as “A (IC50 value for the indicated mutant below about 100 nM)”.

As to `C=CC(=O)Nc1cc(Nc2ncc(Cl)c(-c3cn4c5c(cccc35)CCC4)n2)c(OC)cc1N(C)CCN1CCN(C)CC1` [Example 25, N-(5-((5-chloro-4-(5,6-dihydro-4H-pyrrolo[3,2,1-ij]quinolin-1-yl)pyrimidin-2-yl)amino)-4-methoxy-2-(methyl(2-(4-methylpiperazin-1-yl)ethyl)amino)phenyl)acrylamide], the IC50 is 100 to 500 nM in test [1] and over 1000 nM in test [3]. Further, the “EGFR exon 19 deletion and exon 20 T790M mutation IC50” value in test [2] is listed as “A (IC50 value for the indicated mutant below about 100 nM)”.

As for `C=CC(=O)Nc1cc(Nc2ncc(C3CC3)c(-c3cn4c5c(cccc35)CCC4)n2)c(OC)cc1N(C)CCN(C)C` [Example 28, N-(5-((5-cyclopropyl-4-(5,6-dihydro-4H-pyrrolo[3,2,1-ij]quinolin-1-yl)pyrimidin-2-yl)amino)-2-((2-(dimethylamino)ethyl)(methyl)amino)-4-methoxyphenyl)acrylamide], the IC50 in test [1] is under 100 nM; in test [3], 500 to 1000 nM. The “EGFR exon 19 deletion and exon 20 T790M mutation IC50” value in test [2] is reported as “A (IC50 value for the indicated mutant below about 100 nM)”.

As to `C=CC(=O)Nc1cc(Nc2ncc(C(=C)C)c(-c3cn4c5c(cccc35)CCC4)n2)c(OC)cc1N(C)CCN(C)C` [Example 29, N-(5-((4-(5,6-dihydro-4H-pyrrolo[3,2,1-ij]quinolin-1-yl)-5-(prop-1-en-2-yl)pyrimidin-2-yl)amino)-2-((2-(dimethylamino)ethyl)(methyl)amino)-4-methoxyphenyl)acrylamide], the IC50 in test [1] and in test [3] was under 100 nM throughout. Further, the “EGFR exon 19 deletion and exon 20 T790M mutation IC50” value in test [2] is “A (IC50 value for the indicated mutant below about 100 nM)”.

With `C=CC(=O)Nc1cc(Nc2ncc(C(C)C)c(-c3cn4c5c(cccc35)CCC4)n2)c(OC)cc1N(C)CCN(C)C` [Example 30, N-(5-((4-(5,6-dihydro-4H-pyrrolo[3,2,1-ij]quinolin-1-yl)-5-isopropylpyrimidin-2-yl)amino)-2-((2-(dimethylamino)ethyl)(methyl)amino)-4-methoxyphenyl)acrylamide], the IC50 lay within 100 to 500 nM in test [1] and 500 to 1000 nM in test [3]. Besides, the “EGFR exon 19 deletion and exon 20 T790M mutation IC50” value in test [2] was “A (IC50 value for the indicated mutant below about 100 nM)”.

`C=CC(=O)Nc1cc(Nc2nccc(-c3cn4c5c(cccc35)OCC4)n2)c(OC)cc1N(C)CCN(C)C` [Example 77, N-(5-((4-(2,3-dihydro-[1,4]oxazino[2,3,4-hi]indol-6-yl)pyrimidin-2-yl)amino)-2-((2-(dimethylamino)ethyl)(methyl)amino)-4-methoxyphenyl)acrylamide] displayed an IC50 in test [3] of 100 to 500 nM.

As to `C=CC(=O)Nc1cc(Nc2ncc(Cl)c(-c3cn4c5c(cccc35)OCC4)n2)c(C)cc1OCCN1CCCC1` [Example 78, N-(5-((5-chloro-4-(2,3-dihydro-[1,4]oxazino[2,3,4-hi]indol-6-yl)pyrimidin-2-yl)amino)-4-methyl-2-(2-(pyrrolidin-1-yl)ethoxy)phenyl)acrylamide], the IC50 in test [1] is under 100 nM; in test [3], 100 to 500 nM. In addition, the “EGFR exon 19 deletion and exon 20 T790M mutation IC50” value in test [2] is given as “A (IC50 value for the indicated mutant below about 100 nM)”.
